{"source": "patent US8323673B2", "about": "“Concentrated, non-foaming solution of quaternary ammonium compounds and methods of use” (University of Arkansas, priority 1996, dated 2012)", "key": {"L. monocytogenes [1]": {"system": "L. monocytogenes", "experiment": "Inhibition of attachment of Listeria monocytogenes to chicken skin", "source_text": "The steps of Example 3 were followed except that L. monocytogenes was used to inoculate the chicken skin and the media in the plastic bag used in the Stomacher 400 contained 0.1% peptone."}, "[2]": {"experiment": "Ames assay for mutagenicity", "assay_type": "cell-based", "procedure": "The present invention has an important application in the food processing industry, as well as for home and institutional food preparation. QACs are readily available and the cost of carrying out the method of the present invention is not expensive as compared to existing antimicrobial processes. […] A range of concentrations of QACs are effective in preventing broad spectrum microbial growth on food products. QACs are tested by the Ames assay for mutagenicity."}, "L. monocytogenes [3]": {"system": "L. monocytogenes", "experiment": "Reduction of viable Listeria monocytogenes attached to chicken skin", "conditions": "CPC 2000 ppm or higher", "source_text": "The steps of Example 2 were followed except that L. monocytogenes was used to inoculate the chicken skin and the media in the plastic bag used in the Stomacher 400 contained 0.1% peptone."}, "Escherichia coli O157:H7 [4]": {"system": "Escherichia coli O157:H7"}, "Arcobacter butzleri": {"system": "Arcobacter butzleri", "experiment": "MBC, macrodilution broth method", "assay_type": "cell-based", "conditions": "microaerophilic, 37° C., 48 hours", "procedure": "(§1) Experiments were conducted by microaerophilic incubation at 37° C. for 48 hours. An aliquot of each dilution was pour plated in agar and incubated in microaerophilic conditions at 37° C. for 48 hours. MBCs were determined as the lowest dilution with no growth."}, "Campylobacter jejuni": {"system": "Campylobacter jejuni", "experiment": "MBC, macrodilution broth method", "assay_type": "cell-based", "conditions": "microaerophilic, 37° C., 48 hours", "procedure": "as §1"}, "S. typhimurium [5]": {"system": "S. typhimurium", "experiment": "Spraying whole chicken carcasses with a commercial sprayer", "set-up": "species or system Salmonella typhimurium", "procedure": "(§2) These experiments tested the effect that spraying QACs on whole chicken carcasses using a commercial sprayer would have on the reduction of viable bacteria. The bacterial inoculating solutions were made as follows: E. coli (ATTC #25922) was grown in brain heart infusion broth (BHI) for 20-24 h and then diluted to a 1:1000 concentration by adding 0.5 ml of E. coli culture to 500 ml of physiological saline solution (PSS). S. typhimurium was grown in BHI for 20-24 h and then diluted to a 1:5000 concentration by adding 0.1 ml of S. typhimurium culture to 500 ml of physiological saline solution (PSS). […] Prechill chicken carcasses were obtained from a local poultry processing plant for each trial. The carcasses were placed on a shackle line and 1 ml of the bacterial inoculating solution was sprayed on the breast of the carcass, and 1 ml was sprayed on the back. The bacteria were allowed to attach for 30 min at room temperature. After attachment the carcasses were rinsed on the shackle line with tap water for 20 seconds. The carcasses were divided into groups of ten. […] In the S. typhimurium tests, there was also a group that was not sprayed after inoculation to evaluate the effect of the spray.\n(§3) For all of the bacteria, one group of carcasses were treated with the Johnson™ washer for 20 seconds at 60 psi with 35 cups of tap water. After the rinse, the carcasses were allowed to set for 90 seconds, and then rinsed with 20 cups of tap water for 20 seconds at 80 psi. This rinse cycle was repeated either two or three times. The interval of each rinse was also 90 seconds. […] This rinse cycle was repeated either two or three times.\n(§4) After treatment the carcasses were placed in plastic bags and 100 ml of 0.1% buffered peptone water (BPW) was added to each bag. The bags were mechanically shaken and the rinse collected for most probable number (MPN) technique. Petrifilm™ was also employed for evaluation of total aerobic plate counts (TPC). Preexisting (not inoculated) C. jejuni was enumerated by the MPN technique and E. coli by Petrifilm™."}, "C. jejuni": {"system": "C. jejuni", "experiment": "Spraying whole chicken carcasses with a commercial sprayer", "set-up": "species or system Campylobacter jejuni", "conditions": "for BACTERIA PRESENT, 5,000 ppm CPC: preexisting C. jejuni, MPN, spray 20 seconds at 60 psi", "procedure": "as §2, §3, §4"}, "Escherichia coli O157:H7 [6]": {"system": "Escherichia coli O157:H7", "remark": "listed apart in the source"}, "Salmonella": {"system": "Salmonella", "experiment": "Another spraying experiment on chicken carcasses", "conditions": "90 second spraying of chicken carcasses with 5,000 ppm CPC"}, "E. coli": {"system": "E. coli", "experiment": "Spraying whole chicken carcasses with a commercial sprayer", "set-up": "species or system Escherichia coli", "conditions": "for BACTERIA PRESENT, 5,000 ppm CPC: Petrifilm, spray 20 seconds at 60 psi", "procedure": "as §2, §3, §4"}, "S. typhimurium [7]": {"system": "S. typhimurium", "experiment": "Concentration and time study: reduction of viable S. typhimurium on chicken skin", "set-up": "species or system Salmonella typhimurium", "conditions": "CPC 4000 and 8000 ppm in 5% glycerin-PBS, contact times as low as 3 min", "procedure": "CPC in the glycerin-PBS mixture. […] Salmonella storage was on TSA. Inoculum preparation was performed as follows.\nCulture plates with the skin pieces were incubated (30 min., 35° C.), and then the incubating solution was removed by aspiration. The inoculated skins were treated with 5 ml of the test solution. […] A corner of the bag was aseptically cut and the entire contents were transferred to a sterile centrifuge tube, which was then spun for 10 min (12,000 rpm, 20° C.). The pellet was resuspended in 5 ml 0.1% (w/v) peptone/water."}, "Escherichia coli O157:H7 [8]": {"system": "Escherichia coli O157:H7", "remark": "listed apart in the source"}}}
{"compound": "CCCCCCCCCCCCCCCC[n+]1ccccc1", "note": "[CPC, cetylpyridinium chloride]", "values": [{"measurement": "reduction of attached bacteria", "setting": "L. monocytogenes [1]; 50 ppm CPC", "result": 82, "unit": "%"}, {"measurement": "reduction of attached bacteria", "setting": "L. monocytogenes [1]; 100 ppm CPC", "result": 92, "unit": "%"}, {"measurement": "reduction of attached bacteria", "setting": "L. monocytogenes [1]; 500 and 1000 ppm CPC", "result": 100, "unit": "%"}, {"measurement": "mutagenicity by the Ames assay", "setting": "[2]", "result": "nonmutagenic"}, {"measurement": "reduction in L. monocytogenes", "setting": "L. monocytogenes [3]", "result": "> 4", "unit": "log10"}, {"measurement": "reduction in the number of bacteria attached to the beef", "setting": "Escherichia coli O157:H7 [4]", "result": 76, "unit": "%"}, {"measurement": "CPC Vs Arcobacter Butzleri, growth in MBC test", "setting": "Arcobacter butzleri; CPC 0.50 μg/mL", "result": "+"}, {"measurement": "CPC Vs Arcobacter Butzleri, growth in MBC test", "setting": "Arcobacter butzleri; CPC 0.98 μg/mL", "result": "+"}, {"measurement": "CPC Vs Arcobacter Butzleri, growth in MBC test", "setting": "Arcobacter butzleri; CPC 1.96 μg/mL", "result": "+"}, {"measurement": "CPC Vs Arcobacter Butzleri, growth in MBC test", "setting": "Arcobacter butzleri; CPC 3.91 μg/mL", "result": "+"}, {"measurement": "CPC Vs Arcobacter Butzleri, growth in MBC test", "setting": "Arcobacter butzleri; CPC 7.81 μg/mL", "result": "+"}, {"measurement": "CPC Vs Arcobacter Butzleri, growth in MBC test", "setting": "Arcobacter butzleri; CPC 15.63 μg/mL", "result": "+"}, {"measurement": "CPC Vs Arcobacter Butzleri, growth in MBC test", "setting": "Arcobacter butzleri; CPC 31.25 μg/mL", "result": "+"}, {"measurement": "CPC Vs Arcobacter Butzleri, growth in MBC test", "setting": "Arcobacter butzleri; CPC 62.5 μg/mL", "result": "−"}, {"measurement": "CPC Vs Arcobacter Butzleri, growth in MBC test", "setting": "Arcobacter butzleri; CPC 125 μg/mL", "result": "−"}, {"measurement": "CPC Vs Arcobacter Butzleri, growth in MBC test", "setting": "Arcobacter butzleri; CPC […]", "result": "+"}, {"measurement": "CPC Vs Campylobacter Jejuni, growth in MBC test", "setting": "Campylobacter jejuni; CPC 0.50 μg/mL", "result": "+"}, {"measurement": "CPC Vs Campylobacter Jejuni, growth in MBC test", "setting": "Campylobacter jejuni; CPC 0.98 μg/mL", "result": "+"}, {"measurement": "CPC Vs Campylobacter Jejuni, growth in MBC test", "setting": "Campylobacter jejuni; CPC 1.96 μg/mL", "result": "+"}, {"measurement": "CPC Vs Campylobacter Jejuni, growth in MBC test", "setting": "Campylobacter jejuni; CPC 3.91 μg/mL", "result": "+"}, {"measurement": "CPC Vs Campylobacter Jejuni, growth in MBC test", "setting": "Campylobacter jejuni; CPC 7.81 μg/mL", "result": "−"}, {"measurement": "CPC Vs Campylobacter Jejuni, growth in MBC test", "setting": "Campylobacter jejuni; CPC 15.63 μg/mL", "result": "−"}, {"measurement": "CPC Vs Campylobacter Jejuni, growth in MBC test", "setting": "Campylobacter jejuni; CPC 31.25 μg/mL", "result": "−"}, {"measurement": "CPC Vs Campylobacter Jejuni, growth in MBC test", "setting": "Campylobacter jejuni; CPC 62.5 μg/mL", "result": "−"}, {"measurement": "CPC Vs Campylobacter Jejuni, growth in MBC test", "setting": "Campylobacter jejuni; CPC 125 μg/mL", "result": "−"}, {"measurement": "CPC Vs Campylobacter Jejuni, growth in MBC test", "setting": "Campylobacter jejuni; CPC […]", "result": "+"}, {"measurement": "Reduction, No Spray vs. CPC Treatment", "setting": "S. typhimurium [5]; trial 1 (Dec. 02, 1996)", "result": 1.047, "unit": "Log10 CFUs"}, {"measurement": "Reduction, Spray vs. CPC Treatment", "setting": "S. typhimurium [5]; trial 1 (Dec. 02, 1996)", "result": 0.744, "unit": "Log10 CFUs"}, {"measurement": "S. typhimurium, 5,000 ppm CPC", "setting": "S. typhimurium [5]; trial 1 (Dec. 02, 1996)", "result": 4.295, "unit": "Log10 CFUs"}, {"measurement": "Reduction, No Spray vs. CPC Treatment", "setting": "S. typhimurium [5]; trial 2 (Dec. 09, 1996)", "result": 3.327, "unit": "Log10 CFUs"}, {"measurement": "Reduction, Spray vs. CPC Treatment", "setting": "S. typhimurium [5]; trial 2 (Dec. 09, 1996)", "result": 2.955, "unit": "Log10 CFUs"}, {"measurement": "S. typhimurium, 5,000 ppm CPC", "setting": "S. typhimurium [5]; trial 2 (Dec. 09, 1996)", "result": 1.977, "unit": "Log10 CFUs"}, {"measurement": "Reduction, No Spray vs. CPC Treatment", "setting": "S. typhimurium [5]; trial 3 (Dec. 16, 1996)", "result": 2.395, "unit": "Log10 CFUs"}, {"measurement": "Reduction, Spray vs. CPC Treatment", "setting": "S. typhimurium [5]; trial 3 (Dec. 16, 1996)", "result": 2.548, "unit": "Log10 CFUs"}, {"measurement": "S. typhimurium, 5,000 ppm CPC", "setting": "S. typhimurium [5]; trial 3 (Dec. 16, 1996)", "result": 2.606, "unit": "Log10 CFUs"}, {"measurement": "Reduction, No Spray vs. CPC Treatment", "setting": "S. typhimurium [5]; trial 4 (Jan. 27, 1997)", "result": 3.69, "unit": "Log10 CFUs"}, {"measurement": "Reduction, Spray vs. CPC Treatment", "setting": "S. typhimurium [5]; trial 4 (Jan. 27, 1997)", "result": 3.45, "unit": "Log10 CFUs"}, {"measurement": "S. typhimurium, 5,000 ppm CPC", "setting": "S. typhimurium [5]; trial 4 (Jan. 27, 1997)", "result": 1.03, "unit": "Log10 CFUs"}, {"measurement": "Reduction, No Spray vs. CPC Treatment", "setting": "S. typhimurium [5]; trial 5 (Feb. 03, 1997)", "result": 2.76, "unit": "Log10 CFUs"}, {"measurement": "Reduction, Spray vs. CPC Treatment", "setting": "S. typhimurium [5]; trial 5 (Feb. 03, 1997)", "result": 2.79, "unit": "Log10 CFUs"}, {"measurement": "S. typhimurium, 5,000 ppm CPC", "setting": "S. typhimurium [5]; trial 5 (Feb. 03, 1997)", "result": 1.426, "unit": "Log10 CFUs"}, {"measurement": "reduction of Salmonella by CPC in the wash water", "setting": "S. typhimurium [5]; wash water of the S. typhimurium runs", "result": 1, "unit": "log"}, {"measurement": "Reduction in Log10 (water control vs 5,000 ppm CPC)", "setting": "C. jejuni; Trial 1", "result": 2.613, "unit": "Log10"}, {"measurement": "BACTERIA PRESENT, 5,000 ppm CPC", "setting": "C. jejuni; Trial 1", "result": 0}, {"measurement": "Reduction in Log10 (water control vs 5,000 ppm CPC)", "setting": "C. jejuni; Trial 2", "result": 2.014, "unit": "Log10"}, {"measurement": "BACTERIA PRESENT, 5,000 ppm CPC", "setting": "C. jejuni; Trial 2", "result": 0.629}, {"measurement": "reduction in attached bacteria", "setting": "Escherichia coli O157:H7 [6]", "result": "62-64%"}, {"measurement": "reduction of Salmonella", "setting": "Salmonella", "result": 3.3, "unit": "log10"}, {"measurement": "Reduction in Log10 (water control vs 5,000 ppm CPC)", "setting": "E. coli; Trial 1", "result": 1.588, "unit": "Log10"}, {"measurement": "BACTERIA PRESENT, 5,000 ppm CPC", "setting": "E. coli; Trial 1", "result": 0.386}, {"measurement": "Reduction in Log10 (water control vs 5,000 ppm CPC)", "setting": "E. coli; Trial 2", "result": 0.920, "unit": "Log10"}, {"measurement": "BACTERIA PRESENT, 5,000 ppm CPC", "setting": "E. coli; Trial 2", "result": 0.460}, {"measurement": "decontamination (Salmonella reduction) on chicken skin", "setting": "S. typhimurium [7]", "result": "~5", "unit": "log10"}, {"measurement": "number of attached bacteria reduced to", "setting": "Escherichia coli O157:H7 [8]", "result": "below 0.1%"}]}
